According to the kinase profiling compilation of Christmann-Franck et al. (2016):

Experiments:
Assay in all cases: KINOMEscan competition binding
Conditions in all cases: compound 10.0 µM
[1] = test system: ABL1 (human), P00519 [M351T]
[2] = target: ABL2 (human) (UniProt P42684)
[3] = target: BMPR1A (human) (UniProt P36894)
[4] = target: BMPR2 (human) (UniProt Q13873)
[5] = target: CAMK4 (human) (UniProt Q16566)
[6] = target: CAMKK1 (human) (UniProt Q8N5S9)
[7] = target: CDC42BPB (human) (UniProt Q9Y5S2)
[8] = target: CDK11B (human) (UniProt P21127)
[9] = target: CDK17 (human) (UniProt Q00537)
[10] = target: CDK18 (human) (UniProt Q07002)
[11] = target: CDK8 (human) (UniProt P49336)
[12] = target: CDKL2 (human) (UniProt Q92772)
[13] = target: CSNK1D (human) (UniProt P48730)
Sequence of CSNK1D (human) (P48730 whole entry, looked up): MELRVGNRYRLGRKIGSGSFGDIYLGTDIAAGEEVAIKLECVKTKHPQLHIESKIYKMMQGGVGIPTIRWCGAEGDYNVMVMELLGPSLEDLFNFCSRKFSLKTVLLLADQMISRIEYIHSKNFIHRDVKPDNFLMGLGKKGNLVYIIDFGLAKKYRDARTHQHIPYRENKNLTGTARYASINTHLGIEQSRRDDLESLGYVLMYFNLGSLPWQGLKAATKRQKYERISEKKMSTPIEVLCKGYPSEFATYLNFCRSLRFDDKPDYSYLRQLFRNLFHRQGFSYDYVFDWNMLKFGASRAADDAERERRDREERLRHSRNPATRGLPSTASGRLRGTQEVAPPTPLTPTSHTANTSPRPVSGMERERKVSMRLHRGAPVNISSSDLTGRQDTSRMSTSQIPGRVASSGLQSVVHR

[14] = target: EIF2AK2 (human) (UniProt P19525)
[15] = target: EPHB2 (human) (UniProt P29323)
[16] = target: FYN (human) (UniProt P06241)
[17] = target: IRAK3 (human) (UniProt Q9Y616)
[18] = test system: KIT (human), P10721 [D816V]
[19] = target: MAP2K3 (human) (UniProt P46734)
[20] = target: MAP2K6 (human) (UniProt P52564)
[21] = target: MAP3K3 (human) (UniProt Q99759)
[22] = target: MAPKAPK5 (human) (UniProt Q8IW41)
Sequence of MAPKAPK5 (human) (Q8IW41 whole entry, looked up): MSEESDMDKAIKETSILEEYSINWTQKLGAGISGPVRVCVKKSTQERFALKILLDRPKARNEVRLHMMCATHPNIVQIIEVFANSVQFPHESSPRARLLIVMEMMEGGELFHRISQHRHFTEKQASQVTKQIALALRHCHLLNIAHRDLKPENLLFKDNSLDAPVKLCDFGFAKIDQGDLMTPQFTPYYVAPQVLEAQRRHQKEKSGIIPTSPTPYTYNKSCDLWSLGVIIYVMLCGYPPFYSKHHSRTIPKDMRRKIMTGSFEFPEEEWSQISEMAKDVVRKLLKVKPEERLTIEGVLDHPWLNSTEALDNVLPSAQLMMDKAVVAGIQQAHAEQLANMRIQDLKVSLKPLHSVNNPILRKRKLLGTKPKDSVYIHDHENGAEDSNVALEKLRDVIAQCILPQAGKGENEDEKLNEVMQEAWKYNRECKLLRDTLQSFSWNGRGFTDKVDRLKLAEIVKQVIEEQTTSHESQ

[23] = target: MARK1 (human) (UniProt Q9P0L2)
Sequence of MARK1 (human) (Q9P0L2 whole entry, looked up): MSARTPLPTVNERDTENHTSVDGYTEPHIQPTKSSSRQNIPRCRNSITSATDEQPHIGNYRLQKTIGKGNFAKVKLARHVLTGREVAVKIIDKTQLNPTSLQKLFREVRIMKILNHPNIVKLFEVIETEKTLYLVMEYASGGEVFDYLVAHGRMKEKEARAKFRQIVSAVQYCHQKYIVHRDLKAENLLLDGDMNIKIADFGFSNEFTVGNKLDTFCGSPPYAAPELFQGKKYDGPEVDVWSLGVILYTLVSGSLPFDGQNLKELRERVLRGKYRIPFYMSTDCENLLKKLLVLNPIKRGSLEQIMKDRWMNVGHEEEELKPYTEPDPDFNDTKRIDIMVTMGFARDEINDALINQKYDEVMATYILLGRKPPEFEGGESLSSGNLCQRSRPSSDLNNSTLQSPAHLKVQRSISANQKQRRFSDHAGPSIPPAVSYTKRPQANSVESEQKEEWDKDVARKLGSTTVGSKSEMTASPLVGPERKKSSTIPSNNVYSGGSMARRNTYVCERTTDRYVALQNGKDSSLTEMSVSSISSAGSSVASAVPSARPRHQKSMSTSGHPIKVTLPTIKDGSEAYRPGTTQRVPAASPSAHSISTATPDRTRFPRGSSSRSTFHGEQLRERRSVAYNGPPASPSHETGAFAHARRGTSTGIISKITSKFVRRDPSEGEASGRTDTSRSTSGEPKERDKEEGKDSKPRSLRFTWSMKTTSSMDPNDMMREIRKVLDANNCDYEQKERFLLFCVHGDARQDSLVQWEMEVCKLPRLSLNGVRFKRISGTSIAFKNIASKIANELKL

[24] = target: MLTK (human) (UniProt Q9NYL2)
[25] = target: MYLK (human) (UniProt Q15746)
Sequence of MYLK (human) (Q15746 whole entry, looked up): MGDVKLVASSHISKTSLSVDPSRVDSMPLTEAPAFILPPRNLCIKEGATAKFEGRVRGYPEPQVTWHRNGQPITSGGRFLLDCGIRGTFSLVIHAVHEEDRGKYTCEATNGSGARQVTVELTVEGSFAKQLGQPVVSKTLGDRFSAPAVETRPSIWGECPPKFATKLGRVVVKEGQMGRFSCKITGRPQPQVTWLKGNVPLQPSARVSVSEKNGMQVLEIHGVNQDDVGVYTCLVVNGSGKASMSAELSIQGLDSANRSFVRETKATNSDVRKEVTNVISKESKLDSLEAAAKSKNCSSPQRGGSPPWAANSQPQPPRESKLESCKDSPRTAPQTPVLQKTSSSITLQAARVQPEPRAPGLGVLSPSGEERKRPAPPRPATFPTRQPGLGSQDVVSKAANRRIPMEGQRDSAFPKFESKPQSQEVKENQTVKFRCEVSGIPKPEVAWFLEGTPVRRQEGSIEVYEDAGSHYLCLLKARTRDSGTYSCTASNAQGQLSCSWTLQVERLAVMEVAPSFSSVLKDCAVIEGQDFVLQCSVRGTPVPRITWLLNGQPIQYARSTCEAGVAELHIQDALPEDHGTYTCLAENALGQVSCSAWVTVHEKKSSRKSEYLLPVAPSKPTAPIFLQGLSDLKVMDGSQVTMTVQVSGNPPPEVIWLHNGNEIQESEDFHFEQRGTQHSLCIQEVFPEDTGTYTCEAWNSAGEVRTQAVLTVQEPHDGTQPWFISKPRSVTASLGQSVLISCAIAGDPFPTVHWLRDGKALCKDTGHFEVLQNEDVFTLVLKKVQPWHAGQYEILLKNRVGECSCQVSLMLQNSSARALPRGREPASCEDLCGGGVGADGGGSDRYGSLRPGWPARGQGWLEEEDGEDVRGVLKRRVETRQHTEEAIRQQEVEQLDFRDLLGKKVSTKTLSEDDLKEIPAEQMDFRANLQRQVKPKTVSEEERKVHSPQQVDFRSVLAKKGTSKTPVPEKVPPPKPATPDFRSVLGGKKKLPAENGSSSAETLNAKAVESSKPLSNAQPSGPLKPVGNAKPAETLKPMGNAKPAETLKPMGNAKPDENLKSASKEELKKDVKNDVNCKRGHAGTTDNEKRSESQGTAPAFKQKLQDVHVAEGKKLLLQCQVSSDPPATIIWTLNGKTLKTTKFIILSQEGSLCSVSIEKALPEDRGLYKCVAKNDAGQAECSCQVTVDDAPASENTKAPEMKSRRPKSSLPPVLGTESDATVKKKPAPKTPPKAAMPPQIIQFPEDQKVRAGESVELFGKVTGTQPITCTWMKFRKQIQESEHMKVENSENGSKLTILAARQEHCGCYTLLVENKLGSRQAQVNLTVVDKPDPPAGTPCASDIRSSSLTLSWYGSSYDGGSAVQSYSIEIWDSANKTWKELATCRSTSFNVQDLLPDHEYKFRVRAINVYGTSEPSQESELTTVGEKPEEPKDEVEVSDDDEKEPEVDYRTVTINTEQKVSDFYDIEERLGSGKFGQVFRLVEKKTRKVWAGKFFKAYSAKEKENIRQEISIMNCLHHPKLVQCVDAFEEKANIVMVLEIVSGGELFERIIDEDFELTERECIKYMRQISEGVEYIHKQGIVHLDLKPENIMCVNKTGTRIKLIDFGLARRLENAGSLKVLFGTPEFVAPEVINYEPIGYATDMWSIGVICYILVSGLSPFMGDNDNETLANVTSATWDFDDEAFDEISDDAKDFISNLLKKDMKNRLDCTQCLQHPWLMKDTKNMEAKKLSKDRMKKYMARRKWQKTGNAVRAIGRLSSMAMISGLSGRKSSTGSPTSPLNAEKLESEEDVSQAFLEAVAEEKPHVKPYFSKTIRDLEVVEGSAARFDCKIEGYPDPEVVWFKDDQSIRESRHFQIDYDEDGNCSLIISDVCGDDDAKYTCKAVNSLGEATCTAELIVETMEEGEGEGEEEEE

[26] = target: MYO3B (human) (UniProt Q8WXR4)
[27] = target: NEK9 (human) (UniProt Q8TD19)
[28] = target: PAK4 (human) (UniProt O96013)
[29] = target: PDGFRB (human) (UniProt P09619)
[30] = target: PIK3CD (human) (UniProt O00329)
[31] = target: PIM1 (human) (UniProt P11309)
[32] = target: PRKACA (human) (UniProt P17612)
[33] = target: PRKD2 (human) (UniProt Q9BZL6)
[34] = target: RET (human) (UniProt P07949)
[35] = target: RPS6KA1 KD1 (human) (UniProt Q15418)
[36] = target: SRC (human) (UniProt P12931)
[37] = target: STK11 (human) (UniProt Q15831)
Sequence of STK11 (human) (Q15831 whole entry, looked up): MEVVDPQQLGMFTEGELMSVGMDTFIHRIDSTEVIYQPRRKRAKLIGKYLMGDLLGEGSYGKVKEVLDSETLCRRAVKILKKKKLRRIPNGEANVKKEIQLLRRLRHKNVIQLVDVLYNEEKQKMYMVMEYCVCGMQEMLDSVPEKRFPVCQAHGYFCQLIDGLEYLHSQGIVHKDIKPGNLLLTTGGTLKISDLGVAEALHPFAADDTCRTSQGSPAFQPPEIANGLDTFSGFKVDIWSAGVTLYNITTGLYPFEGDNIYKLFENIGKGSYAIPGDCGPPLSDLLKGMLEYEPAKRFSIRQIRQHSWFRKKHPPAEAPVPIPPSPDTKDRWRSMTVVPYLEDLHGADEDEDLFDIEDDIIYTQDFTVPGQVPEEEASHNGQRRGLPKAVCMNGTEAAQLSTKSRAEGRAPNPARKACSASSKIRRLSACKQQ

[38] = target: STK33 (human) (UniProt Q9BYT3)
Sequence of STK33 (human) (Q9BYT3 whole entry, looked up): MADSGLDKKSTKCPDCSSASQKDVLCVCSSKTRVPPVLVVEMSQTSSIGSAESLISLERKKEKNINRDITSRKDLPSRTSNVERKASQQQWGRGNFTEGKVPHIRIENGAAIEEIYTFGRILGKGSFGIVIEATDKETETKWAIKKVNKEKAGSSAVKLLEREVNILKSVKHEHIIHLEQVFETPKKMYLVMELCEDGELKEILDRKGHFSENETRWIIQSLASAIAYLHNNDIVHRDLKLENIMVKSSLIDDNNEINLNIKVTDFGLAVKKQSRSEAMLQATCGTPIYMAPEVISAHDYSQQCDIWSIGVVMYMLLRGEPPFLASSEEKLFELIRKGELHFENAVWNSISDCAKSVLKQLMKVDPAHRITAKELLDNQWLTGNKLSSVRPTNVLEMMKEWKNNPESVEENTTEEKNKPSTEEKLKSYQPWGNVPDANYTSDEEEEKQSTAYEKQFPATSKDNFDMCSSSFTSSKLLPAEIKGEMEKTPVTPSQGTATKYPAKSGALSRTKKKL

[39] = target: TEC (human) (UniProt P42680)
[40] = target: TYK2 JH2 pseudokinase (human) (UniProt P29597)

Sequence of CAMKK1 (human) (Q8N5S9 whole entry, looked up): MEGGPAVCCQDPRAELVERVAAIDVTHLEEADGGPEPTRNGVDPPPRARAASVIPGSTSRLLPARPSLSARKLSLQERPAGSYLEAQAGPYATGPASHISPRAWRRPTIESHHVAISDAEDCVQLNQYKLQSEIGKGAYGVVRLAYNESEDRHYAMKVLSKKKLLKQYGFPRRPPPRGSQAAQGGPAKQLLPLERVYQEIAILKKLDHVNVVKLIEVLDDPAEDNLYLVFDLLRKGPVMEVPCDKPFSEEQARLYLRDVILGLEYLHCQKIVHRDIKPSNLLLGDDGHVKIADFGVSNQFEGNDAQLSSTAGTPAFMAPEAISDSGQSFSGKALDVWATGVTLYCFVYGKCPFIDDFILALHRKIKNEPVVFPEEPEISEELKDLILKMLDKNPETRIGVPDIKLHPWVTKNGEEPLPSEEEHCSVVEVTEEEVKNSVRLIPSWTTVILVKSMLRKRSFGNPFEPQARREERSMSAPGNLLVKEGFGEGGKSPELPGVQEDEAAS

C=CC(=O)Nc1cccc(Oc2nc(Nc3ccc(N4CCN(C)CC4)cc3OC)ncc2Cl)c1
kinase still bound, per cent of control [1]: 100% | kinase still bound, per cent of control [2]: 100% | kinase still bound, per cent of control [3]: 100% | kinase still bound, per cent of control [4]: 8.6% | kinase still bound, per cent of control [5]: 100% | kinase still bound, per cent of control [6]: 18% | kinase still bound, per cent of control [7]: 100% | kinase still bound, per cent of control [8]: 100% | kinase still bound, per cent of control [9]: 100% | kinase still bound, per cent of control [10]: 100% | kinase still bound, per cent of control [11]: 100% | kinase still bound, per cent of control [12]: 100% | kinase still bound, per cent of control [13]: 100% | kinase still bound, per cent of control [14]: 100% | kinase still bound, per cent of control [15]: 100% | kinase still bound, per cent of control [16]: 100% | kinase still bound, per cent of control [17]: 34% | kinase still bound, per cent of control [18]: 13% | kinase still bound, per cent of control [19]: 100% | kinase still bound, per cent of control [20]: 100% | kinase still bound, per cent of control [21]: 100% | kinase still bound, per cent of control [22]: 100% | kinase still bound, per cent of control [23]: 11% | kinase still bound, per cent of control [24]: 100% | kinase still bound, per cent of control [25]: 100% | kinase still bound, per cent of control [26]: 100% | kinase still bound, per cent of control [27]: 100% | kinase still bound, per cent of control [28]: 100% | kinase still bound, per cent of control [29]: 11% | kinase still bound, per cent of control [30]: 100% | kinase still bound, per cent of control [31]: 100% | kinase still bound, per cent of control [32]: 100% | kinase still bound, per cent of control [33]: 15% | kinase still bound, per cent of control [34]: 100% | kinase still bound, per cent of control [35]: 12% | kinase still bound, per cent of control [36]: 100% | kinase still bound, per cent of control [37]: 100% | kinase still bound, per cent of control [38]: 1.3% | kinase still bound, per cent of control [39]: 6.6% | kinase still bound, per cent of control [40]: 100%

Cc1ccc(NC(=O)c2cccc(C(C)(C)C#N)c2)cc1Nc1ccc2ncn(C)c(=O)c2c1
kinase still bound, per cent of control [1]: 3.3% | kinase still bound, per cent of control [2]: 12% | kinase still bound, per cent of control [3]: 100% | kinase still bound, per cent of control [4]: 58% | kinase still bound, per cent of control [5]: 100% | kinase still bound, per cent of control [6]: 34% | kinase still bound, per cent of control [7]: 100% | kinase still bound, per cent of control [8]: 11% | kinase still bound, per cent of control [9]: 100% | kinase still bound, per cent of control [10]: 100% | kinase still bound, per cent of control [11]: 22% | kinase still bound, per cent of control [12]: 85% | kinase still bound, per cent of control [13]: 100% | kinase still bound, per cent of control [14]: 75% | kinase still bound, per cent of control [15]: 0% | kinase still bound, per cent of control [16]: 3.6% | kinase still bound, per cent of control [17]: 95% | kinase still bound, per cent of control [18]: 16% | kinase still bound, per cent of control [19]: 80% | kinase still bound, per cent of control [20]: 100% | kinase still bound, per cent of control [21]: 100% | kinase still bound, per cent of control [22]: 100% | kinase still bound, per cent of control [23]: 100% | kinase still bound, per cent of control [24]: 6.5% | kinase still bound, per cent of control [25]: 98% | kinase still bound, per cent of control [26]: 100% | kinase still bound, per cent of control [27]: 100% | kinase still bound, per cent of control [28]: 72% | kinase still bound, per cent of control [29]: 0% | kinase still bound, per cent of control [30]: 99% | kinase still bound, per cent of control [31]: 100% | kinase still bound, per cent of control [32]: 100% | kinase still bound, per cent of control [33]: 99% | kinase still bound, per cent of control [34]: 0.15% | kinase still bound, per cent of control [35]: 85% | kinase still bound, per cent of control [36]: 0.55% | kinase still bound, per cent of control [37]: 100% | kinase still bound, per cent of control [38]: 99% | kinase still bound, per cent of control [39]: 100% | kinase still bound, per cent of control [40]: 100%
